Test results published in patent US11566007B2, “Ras inhibitors” (Revolution Medicines, Inc., priority 2019, dated 2023).
pEC50, pIC50: −log10 of the molar value.

What was measured:
[1] = molecular target: K-Ras G12C (Homo sapiens (Human), UniProt P01116+P62937, G12C); experiment: Ras-Raf (BRAF RBD) disruption / FRET / MOA assay, KRAS G12C; assay type: biochemical; details: KRAS G12C; Ras-Raf disruption/FRET/MOA assay; read-out: IC50* KRAS G12C FRET data
How it was run: (§1)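 A 10-point, 3-fold dilution series topping at 30 μM final was incubated 3 h at 25° C with the Ras/cyclophilin A/BRAF RBD mixture.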

[2] = molecular target: NRAS WT (Homo sapiens (Human), UniProt P01111+P62937); experiment: Ras-Raf (BRAF RBD) disruption / FRET / MOA assay, NRAS WT; assay type: biochemical; details: read-out: IC50* NRAS WT FRET data
How it was run: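 Compounds (30 μM top final, 10-point 3-fold dilutions) incubated 3 h at 25° C with nucleotide-loaded Ras, cyclophilin A and BRAF RBD. Detection with 10 nM anti-His Eu-W1024 and 50 nM anti-GST allophycocyanin over another 1.5 h. Lowered TR-FRET ratio relative to DMSO wells gives IC50.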

[3] = tested on: NCI-H358 cells (K-Ras G12C); experiment: Potency assay: pERK in NCI-H358 cells; assay type: cell-based, human; details: Homo sapiens, NCI-H358; H358 KRAS G12C; read-out: pERK EC50
How it was run: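 pERK decrease read by AlphaLISA SureFire p-ERK1/2 or In-Cell Western after 4 h compound exposure at 37 °C, 5% CO2.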

[4] = molecular target: NRAS G12C (Homo sapiens (Human), UniProt P01111+P62937, G12C); experiment: Ras-Raf (BRAF RBD) disruption / FRET / MOA assay, NRAS G12C; assay type: biochemical; details: read-out: IC50* NRAS G12C FRET data
How it was run: as §1

[5] = molecular target: KRAS G13D (Homo sapiens (Human), UniProt P01116+P62937, G13D); experiment: Ras-Raf (BRAF RBD) disruption / FRET / MOA assay, KRAS G13D; assay type: biochemical; details: read-out: IC50* KRAS G13D FRET data
How it was run: as §1

[6] = molecular target: KRAS G12V (Homo sapiens (Human), UniProt P01116+P62937, G12V); experiment: Ras-Raf (BRAF RBD) disruption / FRET / MOA assay, KRAS G12V; assay type: biochemical; details: read-out: IC50* KRAS G12V FRET data
How it was run: as §1

[7] = molecular target: KRAS G12D (Homo sapiens (Human), UniProt P01116+P62937, G12D); experiment: Ras-Raf (BRAF RBD) disruption / FRET / MOA assay, KRAS G12D; assay type: biochemical; details: Ras-Raf disruption/FRET/MOA assay; class symbols; read-out: KRAS G12D FRET data IC50
How it was run: as §1

KRAS G12D, sequence (P01116-2 other isoform, or with tags, fused parts or gaps G12D): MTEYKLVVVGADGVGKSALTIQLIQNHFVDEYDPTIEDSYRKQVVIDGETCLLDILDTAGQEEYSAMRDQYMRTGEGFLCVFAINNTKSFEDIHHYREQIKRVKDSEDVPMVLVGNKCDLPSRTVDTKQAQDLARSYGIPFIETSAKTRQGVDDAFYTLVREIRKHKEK
KRAS G12D, sequence (P62937 whole entry): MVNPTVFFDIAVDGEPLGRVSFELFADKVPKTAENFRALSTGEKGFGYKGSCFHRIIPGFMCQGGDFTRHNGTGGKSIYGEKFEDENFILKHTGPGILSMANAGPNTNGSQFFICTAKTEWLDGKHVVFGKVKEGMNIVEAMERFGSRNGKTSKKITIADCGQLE
NRAS WT, sequence (P01111 whole entry): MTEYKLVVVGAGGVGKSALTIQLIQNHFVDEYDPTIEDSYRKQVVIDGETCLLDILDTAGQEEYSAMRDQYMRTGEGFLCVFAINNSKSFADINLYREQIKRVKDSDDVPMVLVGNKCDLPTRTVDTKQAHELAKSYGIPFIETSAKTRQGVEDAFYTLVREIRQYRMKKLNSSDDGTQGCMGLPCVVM
NRAS WT, sequence (P62937 whole entry): as the sequence (P62937 whole entry) above
KRAS G12V, sequence (P01116-2 other isoform, or with tags, fused parts or gaps G12V): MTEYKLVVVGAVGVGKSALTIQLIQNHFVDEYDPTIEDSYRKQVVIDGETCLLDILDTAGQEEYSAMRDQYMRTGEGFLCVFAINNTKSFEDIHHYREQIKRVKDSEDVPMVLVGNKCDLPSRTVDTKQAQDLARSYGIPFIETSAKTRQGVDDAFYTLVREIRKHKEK
KRAS G12V, sequence (P62937 whole entry): as the sequence (P62937 whole entry) above
KRAS G13D, sequence (P01116-2 other isoform, or with tags, fused parts or gaps G13D): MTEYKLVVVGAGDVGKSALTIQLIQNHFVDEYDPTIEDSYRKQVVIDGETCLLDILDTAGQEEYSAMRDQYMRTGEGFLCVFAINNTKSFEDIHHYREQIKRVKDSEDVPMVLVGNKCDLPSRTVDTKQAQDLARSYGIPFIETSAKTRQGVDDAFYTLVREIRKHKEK
KRAS G13D, sequence (P62937 whole entry): as the sequence (P62937 whole entry) above
NRAS G12C, sequence (P01111 whole entry G12C): as the sequence (P01111 whole entry) above, with G12C counted along it
NRAS G12C, sequence (P62937 whole entry): as the sequence (P62937 whole entry) above
K-Ras G12C, sequence (P01116-2 other isoform, or with tags, fused parts or gaps G12C): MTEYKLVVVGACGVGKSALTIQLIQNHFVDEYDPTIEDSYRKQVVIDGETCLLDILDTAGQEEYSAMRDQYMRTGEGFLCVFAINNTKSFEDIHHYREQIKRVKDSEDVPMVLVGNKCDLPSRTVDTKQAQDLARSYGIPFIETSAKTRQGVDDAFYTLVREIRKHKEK
K-Ras G12C, sequence (P62937 whole entry): as the sequence (P62937 whole entry) above

Compound | pIC50 [1] | pIC50 [2] | pEC50 [3] | pIC50 [4] | pIC50 [5] | pIC50 [6] | pIC50 [7]
C=CC(=O)NC[C@H]1CCN1C(=O)N(C)[C@H](C(=O)N[C@H]1Cc2nc(cs2)-c2ccc3c(c2)c(c(-c2cccnc2[C@H](C)OC)n3CC)CC(C)(C)COC(=O)[C@@H]2CCCN(N2)C1=O)C(C)C (atropisomer, axis not shown) [Example A356] | 6.00 to 7.00 | 6.00 to 7.00 | > 5.30 | 6.00 to 7.00 | 5.00 to 6.00 | 5.00 to 6.00 | 5.00 to 6.00
C=C(C)C(=O)N1CC(N(C)C(=O)N(C)[C@H](C(=O)N[C@H]2Cc3nc(cs3)-c3ccc4c(c3)c(c(-c3cccnc3[C@H](C)OC)n4CC)CC(C)(C)COC(=O)[C@@H]3CCCN(N3)C2=O)C(C)C)C1 (atropisomer, axis not shown) [Example A360] | 6.00 to 7.00 | 6.00 to 7.00 | > 5.30 | 6.00 to 7.00 | 5.00 to 6.00 | 6.00 to 7.00 | 5.00 to 6.00
CCn1c(-c2cccnc2[C@H](C)OC)c2c3cc(ccc31)-c1csc(n1)C[C@H](NC(=O)[C@H](C(C)C)N(C)C(=O)N(C)C1CN(C(=O)/C=C/CN(C)C)C1)C(=O)N1CCC[C@H](N1)C(=O)OCC(C)(C)C2 (atropisomer, axis not shown) [Example A361] | 7.00 to 8.00 | 6.00 to 7.00 | > 5.30 | 7.00 to 8.00 | 6.00 to 7.00 | 6.00 to 7.00 | 5.00 to 6.00
CCn1c(-c2cccnc2[C@H](C)OC)c2c3cc(ccc31)-c1csc(n1)C[C@H](NC(=O)CN1CC[C@@]3(CCN(C(=O)C#CC(C)(C)N4CCC4)C3)C1)C(=O)N1CCC[C@H](N1)C(=O)OCC(C)(C)C2 (atropisomer, axis not shown) [Example A364] | 6.00 to 7.00 | 5.00 to 6.00 | > 5.30 | 6.00 to 7.00 | 5.00 to 6.00 | 5.00 to 6.00 | < 5.00
CCn1c(-c2cccnc2[C@H](C)OC)c2c3cc(ccc31)-c1csc(n1)C[C@H](NC(=O)CCO[C@@H]1CCN(C(=O)C#CC(C)(C)N3CCC3)C1)C(=O)N1CCC[C@H](N1)C(=O)OCC(C)(C)C2 (atropisomer, axis not shown) [Example A366] | 7.00 to 8.00 | 5.00 to 6.00 | > 5.30 | 6.00 to 7.00 | 5.00 to 6.00 | 6.00 to 7.00 | 5.00 to 6.00
C=CC(=O)N1CC[C@H](C(=O)N(C)[C@H](C(=O)N[C@H]2Cc3cc(cc(C(F)F)c3)-c3ccc4c(c3)c(c(-c3cccnc3[C@H](C)OC)n4CC(F)(F)F)CC(C)(C)COC(=O)[C@@H]3CCCN(N3)C2=O)C(C)C)C1 (atropisomer, axis not shown) [Example A372] | 6.00 to 7.00 | 5.00 to 6.00 | > 5.30 | 6.00 to 7.00 | 5.00 to 6.00 | 5.00 to 6.00 | < 5.00
CCn1c(-c2cccnc2[C@H](C)OC)c2c3cc(ccc31)N1CCO[C@@H](C[C@H](NC(=O)[C@@H](COC3CN(C(=O)C#CC(C)(C)N(C)C)C3)C(C)C)C(=O)N3CCC[C@H](N3)C(=O)OCC(C)(C)C2)C1 (atropisomer, axis not shown) [Example A377, (2R)-2-(((1-(4-(dimethylamino)-4-methylpent-2-ynoyl)azetidin-3-yl)oxy)methyl)-N-((2^2S,6^3S,4S)-1^1-ethyl-1^2-(2-((S)-1-methoxyethyl)pyridin-3-yl)-10,10-dimethyl-5,7-dioxo-6^1,6^2,6^3,6^4,6^5,6^6-hexahydro-1^1H-8-oxa-2(4,2)-morpholina-1(5,3)-indola-6(1,3)-pyridazinacycloundecaphane-4-yl)-3-methylbutanamide] | > 8.00 | < 5.00 | > 5.30 | > 8.00 | < 5.00 | < 5.00 | < 5.00
CO[C@@H](C)c1ncccc1-c1c2c3cc(ccc3n1CC(F)(F)F)-c1csc(n1)C[C@H](NC(=O)CCOC1CN(C(=O)C#CC(C)(C)N(C)C)C1)C(=O)N1CCC[C@H](N1)C(=O)OCC(C)(C)C2 (atropisomer, axis not shown) [Example A380] | > 8.00 | 5.00 to 6.00 | > 5.30 | > 8.00 | 5.00 to 6.00 | 6.00 to 7.00 | 5.00 to 6.00
C=CC(=O)N1C[C@H](C)N(C(=O)N(C)[C@H](C(=O)N[C@H]2Cc3nc(cs3)-c3ccc4c(c3)c(c(-c3cccnc3[C@H](C)OC)n4CC)CC(C)(C)COC(=O)[C@@H]3CCCN(N3)C2=O)C(C)C)[C@@H](C)C1 (atropisomer, axis not shown) [Example A386] | 7.00 to 8.00 | 7.00 to 8.00 | > 5.30 | 7.00 to 8.00 | 6.00 to 7.00 | 6.00 to 7.00 | 6.00 to 7.00
